Each molecule was assayed against Calcium/calmodulin-dependent protein kinase type 1G (Homo sapiens) (UniProt Q96NX5).
Sequence of Calcium/calmodulin-dependent protein kinase type 1G (Homo sapiens) (Q96NX5 whole entry): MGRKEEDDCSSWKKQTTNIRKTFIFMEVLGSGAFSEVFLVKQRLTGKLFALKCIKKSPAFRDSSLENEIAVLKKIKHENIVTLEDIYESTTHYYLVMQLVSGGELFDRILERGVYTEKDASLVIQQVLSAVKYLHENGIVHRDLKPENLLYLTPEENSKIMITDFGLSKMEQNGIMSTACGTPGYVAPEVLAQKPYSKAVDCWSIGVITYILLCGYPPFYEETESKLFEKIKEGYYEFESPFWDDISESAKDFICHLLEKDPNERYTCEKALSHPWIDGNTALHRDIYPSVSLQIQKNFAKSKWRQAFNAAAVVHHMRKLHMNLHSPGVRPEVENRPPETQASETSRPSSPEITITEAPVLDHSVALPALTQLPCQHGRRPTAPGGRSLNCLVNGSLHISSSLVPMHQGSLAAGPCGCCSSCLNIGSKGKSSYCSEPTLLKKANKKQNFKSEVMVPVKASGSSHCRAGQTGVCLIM

| ΔTm [°C] | SMILES |
| --- | --- |
| 1.6 | COc1cc2c(cc1OC)-c1n[nH]c(Nc3cccc(F)c3)c1C2 |
| 3.7 | Cc1cc(Nc2nc(-c3ccccc3)nc3ccccc23)n[nH]1 |

| SMILES | ΔTm [°C] |
| --- | --- |
| NCCNc1ncc(C(N)=O)c(Nc2cccc(C(F)(F)F)c2)n1 | 5.7 |

What follows are molecules tested against Calcium/calmodulin-dependent protein kinase type II subunit alpha (Homo sapiens) (UniProt Q9UQM7).
Sequence of Calcium/calmodulin-dependent protein kinase type II subunit alpha (Homo sapiens) (Q9UQM7 whole entry): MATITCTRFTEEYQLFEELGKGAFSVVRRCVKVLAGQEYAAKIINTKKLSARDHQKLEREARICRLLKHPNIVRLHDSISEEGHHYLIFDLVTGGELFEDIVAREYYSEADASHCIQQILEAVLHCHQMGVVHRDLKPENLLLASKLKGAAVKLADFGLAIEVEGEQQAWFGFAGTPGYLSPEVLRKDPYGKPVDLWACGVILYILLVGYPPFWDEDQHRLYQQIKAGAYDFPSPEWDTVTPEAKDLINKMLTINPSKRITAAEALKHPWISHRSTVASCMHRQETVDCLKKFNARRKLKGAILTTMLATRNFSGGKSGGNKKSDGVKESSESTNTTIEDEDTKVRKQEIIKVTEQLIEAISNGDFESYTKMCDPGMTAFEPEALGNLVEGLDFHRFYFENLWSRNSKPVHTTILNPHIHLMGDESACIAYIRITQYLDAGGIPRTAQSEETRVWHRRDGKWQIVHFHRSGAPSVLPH

| ΔTm [°C] | SMILES |
| --- | --- |
| 0.3 | COc1cc2c(cc1OC)-c1n[nH]c(Nc3cccc(F)c3)c1C2 |
| 1.4 | Cc1cc(Nc2nc(-c3ccccc3)nc3ccccc23)n[nH]1 |

| SMILES | ΔTm [°C] |
| --- | --- |
| NCCNc1ncc(C(N)=O)c(Nc2cccc(C(F)(F)F)c2)n1 | -0.3 |

These molecules were tested against Calcium/calmodulin-dependent protein kinase type II subunit beta (Homo sapiens) (UniProt Q13554).

| ΔTm [°C] | SMILES |
| --- | --- |
| -0.3 | COc1cc2c(cc1OC)-c1n[nH]c(Nc3cccc(F)c3)c1C2 |
| 0.6 | Cc1cc(Nc2nc(-c3ccccc3)nc3ccccc23)n[nH]1 |

| SMILES | ΔTm [°C] |
| --- | --- |
| NCCNc1ncc(C(N)=O)c(Nc2cccc(C(F)(F)F)c2)n1 | 0.4 |

The molecules below were run against Calcium/calmodulin-dependent protein kinase type II subunit delta (Homo sapiens) (UniProt Q13557).

| ΔTm [°C] | SMILES |
| --- | --- |
| 1.2 | COc1cc2c(cc1OC)-c1n[nH]c(Nc3cccc(F)c3)c1C2 |
| 0.7 | Cc1cc(Nc2nc(-c3ccccc3)nc3ccccc23)n[nH]1 |

| SMILES | ΔTm [°C] |
| --- | --- |
| NCCNc1ncc(C(N)=O)c(Nc2cccc(C(F)(F)F)c2)n1 | -0.6 |

What follows are molecules tested against Calcium/calmodulin-dependent protein kinase type II subunit gamma (Homo sapiens) (UniProt Q13555).

| ΔTm [°C] | SMILES |
| --- | --- |
| -0.1 | COc1cc2c(cc1OC)-c1n[nH]c(Nc3cccc(F)c3)c1C2 |
| 1.9 | Cc1cc(Nc2nc(-c3ccccc3)nc3ccccc23)n[nH]1 |

| SMILES | ΔTm [°C] |
| --- | --- |
| NCCNc1ncc(C(N)=O)c(Nc2cccc(C(F)(F)F)c2)n1 | 1.1 |

The molecules below were run against Dual specificity protein kinase CLK2 (Homo sapiens) (UniProt P49760).

| ΔTm [°C] | SMILES |
| --- | --- |
| 1.1 | COc1cc2c(cc1OC)-c1n[nH]c(Nc3cccc(F)c3)c1C2 |
| 2.8 | Cc1cc(Nc2nc(-c3ccccc3)nc3ccccc23)n[nH]1 |

| SMILES | ΔTm [°C] |
| --- | --- |
| NCCNc1ncc(C(N)=O)c(Nc2cccc(C(F)(F)F)c2)n1 | 1.6 |

These molecules were tested against Dual specificity protein kinase CLK3 (Homo sapiens) (UniProt P49761).

| ΔTm [°C] | SMILES |
| --- | --- |
| 0.4 | COc1cc2c(cc1OC)-c1n[nH]c(Nc3cccc(F)c3)c1C2 |
| 3.5 | Cc1cc(Nc2nc(-c3ccccc3)nc3ccccc23)n[nH]1 |

| SMILES | ΔTm [°C] |
| --- | --- |
| NCCNc1ncc(C(N)=O)c(Nc2cccc(C(F)(F)F)c2)n1 | 1 |

The molecules below were run against Casein kinase I isoform gamma-1 (Homo sapiens) (UniProt Q9HCP0).
Sequence of Casein kinase I isoform gamma-1 (Homo sapiens) (Q9HCP0 whole entry, looked up, canonical isoform): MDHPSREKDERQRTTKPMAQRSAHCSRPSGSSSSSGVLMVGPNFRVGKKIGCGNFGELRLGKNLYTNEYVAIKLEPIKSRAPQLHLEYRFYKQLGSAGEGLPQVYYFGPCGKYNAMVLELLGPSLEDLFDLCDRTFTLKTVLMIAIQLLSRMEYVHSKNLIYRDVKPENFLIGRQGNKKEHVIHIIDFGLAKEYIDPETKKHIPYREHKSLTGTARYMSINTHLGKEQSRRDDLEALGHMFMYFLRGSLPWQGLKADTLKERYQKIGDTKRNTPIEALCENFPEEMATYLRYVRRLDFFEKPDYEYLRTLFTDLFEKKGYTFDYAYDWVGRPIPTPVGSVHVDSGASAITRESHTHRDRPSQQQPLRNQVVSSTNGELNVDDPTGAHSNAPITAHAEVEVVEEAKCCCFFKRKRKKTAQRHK

| ΔTm [°C] | SMILES |
| --- | --- |
| 0.7 | COc1cc2c(cc1OC)-c1n[nH]c(Nc3cccc(F)c3)c1C2 |
| 3.3 | Cc1cc(Nc2nc(-c3ccccc3)nc3ccccc23)n[nH]1 |

| SMILES | ΔTm [°C] |
| --- | --- |
| NCCNc1ncc(C(N)=O)c(Nc2cccc(C(F)(F)F)c2)n1 | 1 |

What follows are molecules tested against Death-associated protein kinase 3 (Homo sapiens) (UniProt O43293).

| SMILES | ΔTm [°C] |
| --- | --- |
| COc1cc2c(cc1OC)-c1n[nH]c(Nc3cccc(F)c3)c1C2 | 0.2 |
| NCCNc1ncc(C(N)=O)c(Nc2cccc(C(F)(F)F)c2)n1 | 3.2 |
| Cc1cc(Nc2nc(-c3ccccc3)nc3ccccc23)n[nH]1 | 6.5 |

The molecules below were run against T1, Myotonin-protein kinase (Homo sapiens) (UniProt Q09013).
T1 sequence (whole entry): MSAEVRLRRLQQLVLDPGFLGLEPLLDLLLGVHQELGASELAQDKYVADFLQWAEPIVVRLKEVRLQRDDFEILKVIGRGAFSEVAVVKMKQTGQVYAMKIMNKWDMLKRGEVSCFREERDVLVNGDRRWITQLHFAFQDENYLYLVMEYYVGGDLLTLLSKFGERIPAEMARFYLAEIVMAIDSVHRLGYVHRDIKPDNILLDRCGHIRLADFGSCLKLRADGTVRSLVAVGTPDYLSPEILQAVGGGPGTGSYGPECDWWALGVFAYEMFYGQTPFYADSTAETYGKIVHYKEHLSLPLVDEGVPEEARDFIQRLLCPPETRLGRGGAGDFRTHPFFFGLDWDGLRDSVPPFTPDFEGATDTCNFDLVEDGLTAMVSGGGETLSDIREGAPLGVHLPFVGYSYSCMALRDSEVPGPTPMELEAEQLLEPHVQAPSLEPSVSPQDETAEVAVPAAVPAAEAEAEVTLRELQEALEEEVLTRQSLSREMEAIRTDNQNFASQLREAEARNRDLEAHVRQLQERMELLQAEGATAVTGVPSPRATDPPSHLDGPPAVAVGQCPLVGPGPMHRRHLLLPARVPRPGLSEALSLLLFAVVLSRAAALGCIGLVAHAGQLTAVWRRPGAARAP

| ΔTm [°C] | SMILES |
| --- | --- |
| 2.4 | COc1cc2c(cc1OC)-c1n[nH]c(Nc3cccc(F)c3)c1C2 |
| 1.9 | Cc1cc(Nc2nc(-c3ccccc3)nc3ccccc23)n[nH]1 |

| SMILES | ΔTm [°C] |
| --- | --- |
| NCCNc1ncc(C(N)=O)c(Nc2cccc(C(F)(F)F)c2)n1 | 3.9 |

What follows are molecules tested against Dual specificity mitogen-activated protein kinase kinase 2 (Homo sapiens, UniProt P36507).
Sequence of Dual specificity mitogen-activated protein kinase kinase 2 (P36507 whole entry): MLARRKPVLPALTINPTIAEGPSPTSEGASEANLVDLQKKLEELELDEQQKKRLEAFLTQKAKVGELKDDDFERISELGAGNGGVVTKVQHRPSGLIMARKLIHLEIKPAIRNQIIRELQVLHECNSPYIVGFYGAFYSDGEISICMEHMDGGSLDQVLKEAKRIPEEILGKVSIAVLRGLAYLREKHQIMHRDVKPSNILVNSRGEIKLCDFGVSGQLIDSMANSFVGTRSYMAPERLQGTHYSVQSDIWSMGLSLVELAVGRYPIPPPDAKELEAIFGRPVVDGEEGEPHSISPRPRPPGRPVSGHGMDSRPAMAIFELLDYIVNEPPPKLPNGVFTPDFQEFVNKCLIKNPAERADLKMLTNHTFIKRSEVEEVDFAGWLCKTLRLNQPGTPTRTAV

| ΔTm [°C] | SMILES |
| --- | --- |
| 0.7 | COc1cc2c(cc1OC)-c1n[nH]c(Nc3cccc(F)c3)c1C2 |
| 3.2 | Cc1cc(Nc2nc(-c3ccccc3)nc3ccccc23)n[nH]1 |

| SMILES | ΔTm [°C] |
| --- | --- |
| NCCNc1ncc(C(N)=O)c(Nc2cccc(C(F)(F)F)c2)n1 | 5.1 |

What follows are molecules tested against T2, Dual specificity mitogen-activated protein kinase kinase 6 (Homo sapiens) (UniProt P52564).
T2 sequence (whole entry): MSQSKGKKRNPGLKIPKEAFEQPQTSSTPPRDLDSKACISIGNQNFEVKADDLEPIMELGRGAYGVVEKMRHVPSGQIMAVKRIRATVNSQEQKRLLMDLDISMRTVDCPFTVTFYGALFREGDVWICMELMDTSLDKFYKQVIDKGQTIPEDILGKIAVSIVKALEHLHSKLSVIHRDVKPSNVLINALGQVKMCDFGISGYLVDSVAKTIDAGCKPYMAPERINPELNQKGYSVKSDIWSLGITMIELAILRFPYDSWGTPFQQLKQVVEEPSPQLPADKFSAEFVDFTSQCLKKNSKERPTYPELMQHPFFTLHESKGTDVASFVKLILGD

| ΔTm [°C] | SMILES |
| --- | --- |
| 0.3 | COc1cc2c(cc1OC)-c1n[nH]c(Nc3cccc(F)c3)c1C2 |
| 2.3 | Cc1cc(Nc2nc(-c3ccccc3)nc3ccccc23)n[nH]1 |

| SMILES | ΔTm [°C] |
| --- | --- |
| NCCNc1ncc(C(N)=O)c(Nc2cccc(C(F)(F)F)c2)n1 | 1.6 |

Each molecule was assayed against Mitogen-activated protein kinase 3 (Homo sapiens, UniProt P27361).
Sequence of Mitogen-activated protein kinase 3 (P27361 whole entry): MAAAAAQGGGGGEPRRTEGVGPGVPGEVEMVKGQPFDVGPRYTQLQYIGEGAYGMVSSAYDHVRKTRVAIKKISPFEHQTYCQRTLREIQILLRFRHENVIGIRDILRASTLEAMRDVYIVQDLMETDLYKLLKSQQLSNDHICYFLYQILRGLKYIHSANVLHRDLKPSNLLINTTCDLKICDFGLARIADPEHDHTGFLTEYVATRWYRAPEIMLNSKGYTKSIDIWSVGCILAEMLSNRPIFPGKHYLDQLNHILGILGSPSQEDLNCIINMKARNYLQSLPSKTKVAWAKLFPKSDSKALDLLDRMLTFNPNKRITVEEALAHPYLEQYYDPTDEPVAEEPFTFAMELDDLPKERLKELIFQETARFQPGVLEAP

| ΔTm [°C] | SMILES |
| --- | --- |
| 0.6 | COc1cc2c(cc1OC)-c1n[nH]c(Nc3cccc(F)c3)c1C2 |
| 0.1 | Cc1cc(Nc2nc(-c3ccccc3)nc3ccccc23)n[nH]1 |

| SMILES | ΔTm [°C] |
| --- | --- |
| NCCNc1ncc(C(N)=O)c(Nc2cccc(C(F)(F)F)c2)n1 | 0.9 |

These molecules were tested against Mitogen-activated protein kinase 6 (Homo sapiens) (UniProt Q16659).

| ΔTm [°C] | SMILES |
| --- | --- |
| -0.3 | COc1cc2c(cc1OC)-c1n[nH]c(Nc3cccc(F)c3)c1C2 |
| 0.2 | Cc1cc(Nc2nc(-c3ccccc3)nc3ccccc23)n[nH]1 |

| SMILES | ΔTm [°C] |
| --- | --- |
| NCCNc1ncc(C(N)=O)c(Nc2cccc(C(F)(F)F)c2)n1 | 3 |

What follows are molecules tested against Serine/threonine-protein kinase OSR1 (Homo sapiens) (UniProt O95747).
Sequence of Serine/threonine-protein kinase OSR1 (Homo sapiens) (O95747 2-527 limits assumed): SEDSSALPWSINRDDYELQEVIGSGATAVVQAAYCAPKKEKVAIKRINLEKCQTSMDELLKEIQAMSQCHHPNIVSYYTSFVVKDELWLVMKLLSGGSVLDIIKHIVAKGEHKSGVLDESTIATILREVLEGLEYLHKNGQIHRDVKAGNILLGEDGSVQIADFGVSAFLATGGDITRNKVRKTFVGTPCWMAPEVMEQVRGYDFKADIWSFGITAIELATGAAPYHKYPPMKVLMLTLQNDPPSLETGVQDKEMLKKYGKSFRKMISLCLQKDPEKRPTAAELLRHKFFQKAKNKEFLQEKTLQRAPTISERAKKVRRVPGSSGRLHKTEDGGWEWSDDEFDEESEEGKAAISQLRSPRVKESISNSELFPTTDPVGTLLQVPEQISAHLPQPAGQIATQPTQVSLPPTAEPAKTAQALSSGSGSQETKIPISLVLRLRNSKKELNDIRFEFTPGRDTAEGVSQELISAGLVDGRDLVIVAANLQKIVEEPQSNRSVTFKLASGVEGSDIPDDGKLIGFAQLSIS

| ΔTm [°C] | SMILES |
| --- | --- |
| 0.6 | COc1cc2c(cc1OC)-c1n[nH]c(Nc3cccc(F)c3)c1C2 |
| 2.9 | Cc1cc(Nc2nc(-c3ccccc3)nc3ccccc23)n[nH]1 |

| SMILES | ΔTm [°C] |
| --- | --- |
| NCCNc1ncc(C(N)=O)c(Nc2cccc(C(F)(F)F)c2)n1 | 5.4 |

Each molecule was assayed against Serine/threonine-protein kinase PLK1 (Homo sapiens) (UniProt P53350).
Sequence of Serine/threonine-protein kinase PLK1 (Homo sapiens) (P53350 whole entry): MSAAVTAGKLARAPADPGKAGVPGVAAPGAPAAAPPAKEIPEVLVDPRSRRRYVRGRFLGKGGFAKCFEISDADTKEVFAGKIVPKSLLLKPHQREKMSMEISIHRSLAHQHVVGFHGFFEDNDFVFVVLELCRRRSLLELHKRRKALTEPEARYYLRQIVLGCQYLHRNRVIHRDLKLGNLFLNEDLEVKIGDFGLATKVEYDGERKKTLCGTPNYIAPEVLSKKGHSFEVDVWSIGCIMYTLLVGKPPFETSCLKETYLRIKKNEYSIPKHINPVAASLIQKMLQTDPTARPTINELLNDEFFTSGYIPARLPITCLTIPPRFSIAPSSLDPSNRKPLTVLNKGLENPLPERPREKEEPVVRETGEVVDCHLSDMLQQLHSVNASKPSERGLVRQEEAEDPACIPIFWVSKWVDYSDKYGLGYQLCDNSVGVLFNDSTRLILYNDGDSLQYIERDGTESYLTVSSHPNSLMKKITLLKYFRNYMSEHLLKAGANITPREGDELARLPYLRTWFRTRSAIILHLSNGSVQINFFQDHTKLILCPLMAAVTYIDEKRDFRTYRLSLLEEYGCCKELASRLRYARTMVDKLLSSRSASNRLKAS

| ΔTm [°C] | SMILES |
| --- | --- |
| -0.2 | COc1cc2c(cc1OC)-c1n[nH]c(Nc3cccc(F)c3)c1C2 |
| 10.8 | Cc1cc(Nc2nc(-c3ccccc3)nc3ccccc23)n[nH]1 |

| SMILES | ΔTm [°C] |
| --- | --- |
| NCCNc1ncc(C(N)=O)c(Nc2cccc(C(F)(F)F)c2)n1 | 0.7 |

What follows are molecules tested against TRAF2 and NCK-interacting protein kinase (Homo sapiens) (UniProt Q9UKE5).
Sequence of TRAF2 and NCK-interacting protein kinase (Homo sapiens) (Q9UKE5 whole entry, looked up): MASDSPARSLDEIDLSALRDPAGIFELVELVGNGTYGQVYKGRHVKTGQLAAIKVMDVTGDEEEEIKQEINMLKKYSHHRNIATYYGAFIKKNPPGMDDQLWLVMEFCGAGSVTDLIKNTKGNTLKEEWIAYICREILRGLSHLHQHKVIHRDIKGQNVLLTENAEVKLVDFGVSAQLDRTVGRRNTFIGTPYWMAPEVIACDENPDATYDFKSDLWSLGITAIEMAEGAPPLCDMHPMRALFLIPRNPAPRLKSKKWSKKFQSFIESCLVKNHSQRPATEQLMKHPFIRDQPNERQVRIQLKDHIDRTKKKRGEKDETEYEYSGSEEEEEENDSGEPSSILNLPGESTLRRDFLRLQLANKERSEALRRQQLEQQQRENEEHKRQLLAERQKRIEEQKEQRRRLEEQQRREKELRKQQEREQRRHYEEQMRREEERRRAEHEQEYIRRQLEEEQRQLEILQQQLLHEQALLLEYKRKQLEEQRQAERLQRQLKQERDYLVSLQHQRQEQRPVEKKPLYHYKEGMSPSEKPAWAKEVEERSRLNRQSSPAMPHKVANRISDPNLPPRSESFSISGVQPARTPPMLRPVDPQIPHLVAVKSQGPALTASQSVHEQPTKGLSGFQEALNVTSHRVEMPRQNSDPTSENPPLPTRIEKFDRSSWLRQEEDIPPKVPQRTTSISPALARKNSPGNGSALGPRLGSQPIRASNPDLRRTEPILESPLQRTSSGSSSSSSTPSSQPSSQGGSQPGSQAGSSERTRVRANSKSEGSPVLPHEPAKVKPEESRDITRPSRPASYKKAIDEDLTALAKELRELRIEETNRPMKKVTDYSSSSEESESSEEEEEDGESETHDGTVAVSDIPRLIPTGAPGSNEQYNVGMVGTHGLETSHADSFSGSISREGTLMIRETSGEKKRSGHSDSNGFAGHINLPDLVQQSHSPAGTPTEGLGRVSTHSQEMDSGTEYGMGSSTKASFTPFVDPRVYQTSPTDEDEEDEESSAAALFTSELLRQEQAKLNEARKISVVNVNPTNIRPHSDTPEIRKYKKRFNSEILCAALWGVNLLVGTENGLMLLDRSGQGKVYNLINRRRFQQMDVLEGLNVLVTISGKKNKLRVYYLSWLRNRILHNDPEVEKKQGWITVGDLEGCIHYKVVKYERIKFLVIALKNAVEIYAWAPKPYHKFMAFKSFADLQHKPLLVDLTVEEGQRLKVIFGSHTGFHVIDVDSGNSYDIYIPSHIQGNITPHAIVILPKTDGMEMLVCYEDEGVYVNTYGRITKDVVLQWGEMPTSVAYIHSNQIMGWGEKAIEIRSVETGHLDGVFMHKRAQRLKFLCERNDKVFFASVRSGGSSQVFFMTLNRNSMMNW

| ΔTm [°C] | SMILES |
| --- | --- |
| 0.7 | COc1cc2c(cc1OC)-c1n[nH]c(Nc3cccc(F)c3)c1C2 |
| -1 | Cc1cc(Nc2nc(-c3ccccc3)nc3ccccc23)n[nH]1 |

| SMILES | ΔTm [°C] |
| --- | --- |
| NCCNc1ncc(C(N)=O)c(Nc2cccc(C(F)(F)F)c2)n1 | 1.3 |

The molecules below were run against T3, Serine/threonine-protein kinase VRK1 (Homo sapiens) (UniProt Q99986).
T3 sequence (whole entry): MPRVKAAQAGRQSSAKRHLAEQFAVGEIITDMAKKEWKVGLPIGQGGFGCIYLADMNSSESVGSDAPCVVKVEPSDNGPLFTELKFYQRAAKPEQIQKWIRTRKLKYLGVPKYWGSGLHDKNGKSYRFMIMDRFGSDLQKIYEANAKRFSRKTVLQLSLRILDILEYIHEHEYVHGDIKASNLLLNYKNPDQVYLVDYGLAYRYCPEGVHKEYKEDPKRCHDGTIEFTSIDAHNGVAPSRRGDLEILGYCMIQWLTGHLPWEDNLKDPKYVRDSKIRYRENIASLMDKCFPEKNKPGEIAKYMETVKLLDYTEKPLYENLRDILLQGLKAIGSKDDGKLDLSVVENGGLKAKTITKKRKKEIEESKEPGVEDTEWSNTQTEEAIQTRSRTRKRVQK

| ΔTm [°C] | SMILES |
| --- | --- |
| 0.4 | COc1cc2c(cc1OC)-c1n[nH]c(Nc3cccc(F)c3)c1C2 |
| 0.8 | Cc1cc(Nc2nc(-c3ccccc3)nc3ccccc23)n[nH]1 |

| SMILES | ΔTm [°C] |
| --- | --- |
| NCCNc1ncc(C(N)=O)c(Nc2cccc(C(F)(F)F)c2)n1 | 3.6 |

From ChEMBL document CHEMBL1145498, “A systematic interaction map of validated kinase inhibitors with Ser/Thr kinases” (Proc Natl Acad Sci U S A, 2007)
